Measurements taken from PubChem BioAssay (NCI).
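1) Cells in 96-well plates. 2) Compound, 48 h, 5 concentrations. 3) Linear interpolation between surrounding doses. 4) Unreached endpoint = highest concentration. GI50: concentration for 50% inhibition of growth. TGI: total growth inhibition.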

Assays:
Test in all cases: inhibition of tumour cell growth, NCI panel, 48 h
K-562 leukemia = tested on: K-562 leukemia
HT29 colon = tested on: HT29 colon
NCI-H522 lung = tested on: NCI-H522 lung
SK-MEL-28 melanoma = tested on: SK-MEL-28 melanoma
UO-31 renal = tested on: UO-31 renal
DU-145 prostate = tested on: DU-145 prostate
NCI-H23 lung = tested on: NCI-H23 lung
CAKI-1 renal = tested on: CAKI-1 renal
HCT-116 colon = tested on: HCT-116 colon
OVCAR-8 ovarian = tested on: OVCAR-8 ovarian
COLO 205 colon = tested on: COLO 205 colon
SK-OV-3 ovarian = tested on: SK-OV-3 ovarian
BT-549 breast = tested on: BT-549 breast
SF-295 CNS = tested on: SF-295 CNS
SF-268 CNS = tested on: SF-268 CNS
OVCAR-4 ovarian = tested on: OVCAR-4 ovarian
EKVX NSCLC = tested on: EKVX NSCLC
MDA-MB-435 = tested on: MDA-MB-435
M14 melanoma = tested on: M14 melanoma
786-0 renal = tested on: 786-0 renal
MALME-3M melanoma = tested on: MALME-3M melanoma
MDA-MB-231 breast = tested on: MDA-MB-231 breast
NCI/ADR-RES ovarian = tested on: NCI/ADR-RES ovarian
UACC-257 melanoma = tested on: UACC-257 melanoma
HCT-15 colon = tested on: HCT-15 colon
KM12 colon = tested on: KM12 colon
A498 renal = tested on: A498 renal
PC-3 prostate = tested on: PC-3 prostate
T-47D breast = tested on: T-47D breast
MCF7 breast = tested on: MCF7 breast
MOLT-4 leukemia = tested on: MOLT-4 leukemia
NCI-H226 lung = tested on: NCI-H226 lung
SNB-19 CNS = tested on: SNB-19 CNS
SW-620 colon = tested on: SW-620 colon
HS 578T breast = tested on: HS 578T breast
UACC-62 melanoma = tested on: UACC-62 melanoma
TK-10 renal = tested on: TK-10 renal
HL-60(TB) leukemia = tested on: HL-60(TB) leukemia
IGROV1 ovarian = tested on: IGROV1 ovarian
SN12C renal = tested on: SN12C renal
ACHN renal = tested on: ACHN renal
SK-MEL-2 melanoma = tested on: SK-MEL-2 melanoma
LOX IMVI melanoma = tested on: LOX IMVI melanoma
SNB-75 CNS = tested on: SNB-75 CNS
HOP-92 NSCLC = tested on: HOP-92 NSCLC
OVCAR-5 ovarian = tested on: OVCAR-5 ovarian
OVCAR-3 ovarian = tested on: OVCAR-3 ovarian
SR leukemia = tested on: SR leukemia
NCI-H460 lung = tested on: NCI-H460 lung
U251 CNS = tested on: U251 CNS
SK-MEL-5 melanoma = tested on: SK-MEL-5 melanoma
HOP-62 NSCLC = tested on: HOP-62 NSCLC
SF-539 CNS = tested on: SF-539 CNS
HCC-2998 colon = tested on: HCC-2998 colon
RXF 393 renal = tested on: RXF 393 renal
A549 NSCLC = tested on: A549 NSCLC
CCRF-CEM leukemia = tested on: CCRF-CEM leukemia
RPMI-8226 leukemia = tested on: RPMI-8226 leukemia

C=C(C)[C@@H]1C/C=C(\COC(=O)[C@H](OC(C)=O)C(NC(=O)c2ccccc2)c2ccccc2)CC[C@H]2O[C@]2(C)CC/C=C(\C)CC1 (stereo not given in full)
GI50 (K-562 leukemia): 30.8 µM | TGI (K-562 leukemia): > 50 µM | GI50 (HT29 colon): 13.2 µM | TGI (HT29 colon): 31.8 µM | GI50 (NCI-H522 lung): 12.1 µM | TGI (NCI-H522 lung): > 50 µM | GI50 (SK-MEL-28 melanoma): 16.6 µM | TGI (SK-MEL-28 melanoma): > 50 µM | GI50 (UO-31 renal): 20.6 µM | TGI (UO-31 renal): > 50 µM | GI50 (DU-145 prostate): 19.3 µM | TGI (DU-145 prostate): > 50 µM | GI50 (NCI-H23 lung): 19.3 µM | TGI (NCI-H23 lung): > 50 µM | GI50 (CAKI-1 renal): 8.64 µM | TGI (CAKI-1 renal): 17.8 µM | GI50 (HCT-116 colon): 12.3 µM | TGI (HCT-116 colon): 38.1 µM | GI50 (OVCAR-8 ovarian): 37.7 µM | TGI (OVCAR-8 ovarian): > 50 µM | GI50 (COLO 205 colon): 11.2 µM | TGI (COLO 205 colon): 25.8 µM | GI50 (SK-OV-3 ovarian): > 50 µM | TGI (SK-OV-3 ovarian): > 50 µM | GI50 (BT-549 breast): 12.9 µM | TGI (BT-549 breast): 45.4 µM | GI50 (SF-295 CNS): 13.2 µM | TGI (SF-295 CNS): > 50 µM | GI50 (SF-268 CNS): 18.2 µM | TGI (SF-268 CNS): > 50 µM | GI50 (OVCAR-4 ovarian): 15.4 µM | TGI (OVCAR-4 ovarian): > 50 µM | GI50 (EKVX NSCLC): 18.6 µM | TGI (EKVX NSCLC): > 50 µM | GI50 (MDA-MB-435): 16.8 µM | TGI (MDA-MB-435): > 50 µM | GI50 (M14 melanoma): 20.7 µM | TGI (M14 melanoma): > 50 µM | GI50 (786-0 renal): 18.5 µM | TGI (786-0 renal): > 50 µM | GI50 (MALME-3M melanoma): 14.3 µM | TGI (MALME-3M melanoma): 42.6 µM | GI50 (MDA-MB-231 breast): 12 µM | TGI (MDA-MB-231 breast): > 50 µM | GI50 (NCI/ADR-RES ovarian): 18.1 µM | TGI (NCI/ADR-RES ovarian): > 50 µM | GI50 (UACC-257 melanoma): 23.3 µM | TGI (UACC-257 melanoma): > 50 µM | GI50 (HCT-15 colon): 12.4 µM | TGI (HCT-15 colon): > 50 µM | GI50 (KM12 colon): 18.7 µM | TGI (KM12 colon): > 50 µM | GI50 (A498 renal): 13.1 µM | TGI (A498 renal): 44.5 µM | GI50 (PC-3 prostate): 13.3 µM | TGI (PC-3 prostate): > 50 µM | GI50 (T-47D breast): 23.1 µM | TGI (T-47D breast): > 50 µM | GI50 (MCF7 breast): 8.94 µM | TGI (MCF7 breast): 22.1 µM | GI50 (MOLT-4 leukemia): 17.6 µM | TGI (MOLT-4 leukemia): > 50 µM | GI50 (NCI-H226 lung): 21.7 µM | TGI (NCI-H226 lung): > 50 µM | GI50 (SNB-19 CNS): 27.8 µM | TGI (SNB-19 CNS): > 50 µM | GI50 (SW-620 colon): 16.8 µM | TGI (SW-620 colon): 49.7 µM | GI50 (HS 578T breast): 15.2 µM | TGI (HS 578T breast): 49.4 µM | GI50 (UACC-62 melanoma): 16.8 µM | TGI (UACC-62 melanoma): > 50 µM | GI50 (TK-10 renal): 18.8 µM | TGI (TK-10 renal): > 50 µM | GI50 (HL-60(TB) leukemia): 4.2 µM | TGI (HL-60(TB) leukemia): > 50 µM | GI50 (IGROV1 ovarian): 17.7 µM | TGI (IGROV1 ovarian): > 50 µM | GI50 (SN12C renal): 10.3 µM | TGI (SN12C renal): 23 µM | GI50 (ACHN renal): 14.6 µM | TGI (ACHN renal): > 50 µM | GI50 (SK-MEL-2 melanoma): 16.7 µM | TGI (SK-MEL-2 melanoma): > 50 µM | GI50 (LOX IMVI melanoma): 8.98 µM | TGI (LOX IMVI melanoma): 19.3 µM | GI50 (SNB-75 CNS): 17.6 µM | TGI (SNB-75 CNS): > 50 µM | GI50 (HOP-92 NSCLC): 31.8 µM | TGI (HOP-92 NSCLC): > 50 µM | GI50 (OVCAR-5 ovarian): 32.1 µM | TGI (OVCAR-5 ovarian): > 50 µM | GI50 (OVCAR-3 ovarian): 12.2 µM | TGI (OVCAR-3 ovarian): 44.5 µM | GI50 (SR leukemia): 23.3 µM | TGI (SR leukemia): > 50 µM | GI50 (NCI-H460 lung): 15.5 µM | TGI (NCI-H460 lung): > 50 µM | GI50 (U251 CNS): 14.9 µM | TGI (U251 CNS): > 50 µM | GI50 (SK-MEL-5 melanoma): 11.8 µM | TGI (SK-MEL-5 melanoma): 28 µM | GI50 (HOP-62 NSCLC): 31.2 µM | TGI (HOP-62 NSCLC): > 50 µM | GI50 (SF-539 CNS): 11.2 µM | TGI (SF-539 CNS): 27.1 µM | GI50 (HCC-2998 colon): 15.1 µM | TGI (HCC-2998 colon): 45.4 µM

COC(=O)Cc1ccc(Oc2nc3ccccc3nc2-c2cccs2)cc1
TGI (K-562 leukemia): > 100 µM | TGI (HT29 colon): > 100 µM | TGI (NCI-H522 lung): > 100 µM | TGI (SK-MEL-28 melanoma): > 100 µM | TGI (UO-31 renal): > 100 µM | TGI (DU-145 prostate): > 100 µM | TGI (NCI-H23 lung): > 100 µM | TGI (CAKI-1 renal): > 100 µM | TGI (HCT-116 colon): > 100 µM | TGI (OVCAR-8 ovarian): > 100 µM | TGI (COLO 205 colon): > 100 µM | TGI (SK-OV-3 ovarian): 92.2 µM | TGI (RXF 393 renal): 48.5 µM | TGI (BT-549 breast): > 100 µM | TGI (A549 NSCLC): > 100 µM | TGI (SF-295 CNS): > 100 µM | TGI (SF-268 CNS): > 100 µM | TGI (OVCAR-4 ovarian): > 100 µM | TGI (EKVX NSCLC): > 100 µM | TGI (MDA-MB-435): > 100 µM | TGI (M14 melanoma): > 100 µM | TGI (786-0 renal): > 100 µM | TGI (CCRF-CEM leukemia): > 100 µM | TGI (MALME-3M melanoma): > 100 µM | TGI (MDA-MB-231 breast): > 100 µM | TGI (RPMI-8226 leukemia): > 100 µM | TGI (NCI/ADR-RES ovarian): > 100 µM | TGI (UACC-257 melanoma): > 100 µM | TGI (HCT-15 colon): > 100 µM | TGI (KM12 colon): > 100 µM | TGI (PC-3 prostate): > 100 µM | TGI (T-47D breast): > 100 µM | TGI (MCF7 breast): > 100 µM | TGI (MOLT-4 leukemia): > 100 µM | TGI (NCI-H226 lung): 99.8 µM | TGI (SNB-19 CNS): > 100 µM | TGI (SW-620 colon): > 100 µM | TGI (HS 578T breast): > 100 µM | TGI (UACC-62 melanoma): > 100 µM | TGI (TK-10 renal): > 100 µM | TGI (HL-60(TB) leukemia): > 100 µM | TGI (IGROV1 ovarian): > 100 µM | TGI (SN12C renal): > 100 µM | TGI (ACHN renal): > 100 µM | TGI (SK-MEL-2 melanoma): > 100 µM | TGI (LOX IMVI melanoma): > 100 µM | TGI (SNB-75 CNS): 24.7 µM | TGI (HOP-92 NSCLC): 63.3 µM | TGI (OVCAR-5 ovarian): > 100 µM | TGI (OVCAR-3 ovarian): > 100 µM | TGI (SR leukemia): > 100 µM | TGI (NCI-H460 lung): > 100 µM | TGI (U251 CNS): > 100 µM | TGI (SK-MEL-5 melanoma): > 100 µM | TGI (HOP-62 NSCLC): > 100 µM | TGI (SF-539 CNS): > 100 µM | TGI (HCC-2998 colon): > 100 µM
